{
  "source": "patent US20140322315A1",
  "about": "“CYSTEAMINE AND/OR CYSTAMINE FOR TREATING ISCHEMIC INJURY” (The Regents of the University of California, priority 2011, published 2014)",
  "key": {"[1]": {"system": "adiponectin", "experiment": "Adiponectin secretion by adipose tissue explants / isolated fat cells cultured with cysteamine", "assay_type": "cell-based", "details": "90 μM cysteamine, 45 min; p=0.002", "method": "Fat biopsy adipose tissue (AT) samples were collagenase digested×1 hr at 37° C. in a rotating waterbath. Digested AT was then filtered through 425 μm nylon mesh to separate fat cells. Isolated fat cells (FC) were twice washed in physiologic salts buffer (Phillips 2008), filtered and twice washed again. FC were spun at 50×g to concentrate. 1 ml FC were resuspended in 9 ml of defined culture media (Phillips 2008) and FC were allowed to recover×10 hrs overnight at 37° C.\nAdipocytes were isolated and allowed to recover×overnight then cultured with or without 90 μM cysteamine and media collected at the following time points (45, 90, 180, 24 hr). Western Blot analysis of 20 μl of media was performed with non-reducing 5× Loading buffer. […] The blot was washed and incubated with a secondary antibody (Goat anti-mouse IR 800) and densitometry measured on a LICOR densitometer. […]\nTo determine the time course of cysteamine effects on adiponectin, media was changed and FC were resuspended in 9 ml of defined media ±90 μM cysteamine. FC content and secretion of adiponectin into the media was assessed in duplicate culture at 0, 45, 90, 180 minutes and 24 hr. […] Signal detection and quantitative analysis was completed using the LiCOR Odyssey Machine (LiCOR, Lincoln, Nebr.). Multimeric content of cellular adiponectin was determined by dividing the AU for the multimer by the total AU per sample. […]"}, "[2]": {"molecular_target": "T1, adiponectin multimers (Homo sapiens, UniProt Q15848)", "T1 construct": "from tissue; host or cells: human serum (pretreatment NAFLD subjects; adults without NAFLD)", "T1 sequence (Q15848 19-244)": "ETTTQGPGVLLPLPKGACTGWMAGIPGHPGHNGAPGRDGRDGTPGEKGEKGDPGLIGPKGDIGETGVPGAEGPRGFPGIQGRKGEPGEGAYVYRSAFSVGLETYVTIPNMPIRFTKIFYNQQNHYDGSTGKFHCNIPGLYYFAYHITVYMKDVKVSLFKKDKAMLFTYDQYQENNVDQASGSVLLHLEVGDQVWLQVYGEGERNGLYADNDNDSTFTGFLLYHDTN", "experiment": "Gastric Banding (GB) serum incubated with cysteamine, adiponectin multimers by western blot", "assay_type": "biochemical", "details": "37° C. + 45 μM cysteamine, 1 hr", "method": "In another experiment, 25 μl total sample volume (5 μl diluted serum+15 μl water+5 μl 5×LB) was incubated with or without cysteamine at 37° C.×1 hr. A control was prepared without cysteamine and incubated at room temperature for 1 hour on the bench. The preparations were then run on 2×15-well 1.5 mm 3-8% Tris-acetate gels. Primary antibody—mouse anti-adiponectin 1:500, overnight at 4° C. and secondary antibody—goat anti-mouse IR800 1:20,000.\nTo determine threshold dose of cysteamine on reduction of serum adiponectin multimers, serum was collected and incubated with various concentrations of cysteamine. Six microliters of diluted GB serum was incubated with 24 μl water and various concentrations of cysteamine. Samples, were incubate in a tissue culture incubator for 1 hr at 37° C. with a control tube having no cysteamine addition. To each tube was then added 5 μl of 5× non-reducing loading buffer. The samples were vortexed and loaded on a 3-8% tris-Acetate gel and run for 75 min at 125 V constant current. The gel was transferred and blocked. The blot was then incubated overnight with anti-adiponectin antibody 1:500 in 3% BSA/TBS. The blot was washed and incubated with a secondary anti-mouse antibody for 1 hour. Densitometry was performed on a LICOR densitometer."}, "[3]": {"system": "adiponectin", "experiment": "Serum total and multimeric adiponectin in subjects with NAFLD treated 24 weeks with EC-cysteamine", "assay_type": "in vivo, human", "source_text": "Eleven children ≧10 years, with biopsy-proven NAFLD and an alanine aminotransferase (ALT) level ≧60 IU/L, were enrolled. They were either newly diagnosed or had not received specific therapy for NAFLD such as vitamin E or insulin-sensitizing drugs for at least 3 months before entering the study. All had undertaken standard of care lifestyle changes involving diet and exercise for more than 3 months. The study's primary outcome measure was normalization (≦40 IU/L) or 50% reduction in baseline serum ALT at 24 weeks of EC-cysteamine therapy; these subjects were deemed responders.\nSubjects were treated for 24 wks and remained monitored for 24 weeks following its discontinuation. The mean EC-cysteamine dose ingested was 654 mg twice daily or 15.2 mg/kg/day (median dose 900 mg) for 24 wks.\nDuring the pilot study blood was collected at pre-defined intervals. Serum was stored at −80° C. until time of assay. Adequate serum volumes were available in 10 of the 11 subjects with NAFLD and only up to 16 weeks post-treatment.\nTotal and multimeric adiponectin levels were measured in serum taken from: (1) subject with NAFLD collected at 0 and 24 wks of cysteamine therapy and again 16 wks after stopping therapy (i.e., 40 weeks); (2) pretreated 0-week subjects with NAFLD and adults without NAFLD at room temperature and at 37° C. and also after incubation with cysteamine 90 μM for 1 hour at 37° C.; and (3) pretreated 0-week subjects with NAFLD before and after incubation with cysteamine at varying concentrations (15, 30, 45, 60, 90, 120 μM) for 1 hour at 37° C. to establish dose-response profile.\nSodium dodecyl sulfate polyacrylamide gel electrophoresis (SDS-PAGE) was performed according to standard Laemmli's method. Sample buffer for non-reducing, non-heat denaturing conditions contained 3% SDS; 50 mmol/1 Tris-HCL, pH 6.8 and 20% glycerol. Proteins were separated using 3-8% Tris-Acetate Gels (Invitrogen, Carlsbad Calif.) with Tris-Acetate running buffer per manufacturer instructions. For immunoblotting, proteins were transferred to nitrocellulose membranes. Membranes were washed with Tween (Tris-buffered Saline, 0.1% […]) and incubated with monoclonal antibody (1:500 BD Transduction Laboratories, San Diego, Calif.). After washing with Tris-buffered saline with 0.1% Tween (4×5 min) membranes were incubated with L-COR secondary antibodies (LI-COR Biotechnology, Lincoln Nebr.) at 1:20,000. Adiponectin multimers were detected and quantified using the LICOR imager and software analysis program. Relative distribution of adiponectin multimers was determined by dividing band density by total density (cellular adiponectin) or by total adiponectin as determined by ELISA (Millipore, Billerica, Mass.). The percentage of adionectin multimer was then multiplied by the total adiponectin level to calculate absolute oligomer value."}, "[4]": {"parameters": "species or system mice (C57BL/6)", "details": "mouse, in vivo"}},
  "data": [
    {"compound": "NCCS", "note": "[cysteamine, Cysteamine]", "values": [
      {"measurement": "total adiponectin, treated vs untreated", "setting": "[1]", "value": "Significant difference"},
      {"measurement": "HMW adiponectin change", "setting": "[2]; p=0.009", "value": "significantly decrease"},
      {"measurement": "LMW adiponectin change", "setting": "[2]; p=0.05", "value": "significantly increase"},
      {"measurement": "all sub-forms (multimer forms) of adiponectin, change from baseline", "setting": "[3]; 24 weeks of oral EC-cysteamine", "value": "increased"},
      {"measurement": "total adiponectin, baseline vs 40 wks", "setting": "[3]; 40 weeks (therapy stopped at 24 weeks)", "value": "No significant difference"},
      {"measurement": "relative proportion of HMW in total adiponectin", "setting": "[3]; after 24 weeks cysteamine therapy, baseline 12.2%, P=0.02", "value": "increased significantly"},
      {"measurement": "relative proportion of LMW in total adiponectin", "setting": "[3]; after 24 weeks cysteamine therapy, baseline 14.1%", "value": "remained unchanged"},
      {"measurement": "relative proportion of MMW in total adiponectin", "setting": "[3]; after 24 weeks cysteamine therapy, baseline 73.7%, P=0.03", "value": "decreased"},
      {"measurement": "total adiponectin change between 24-week and 40-week timepoints", "setting": "[3]; after discontinuing therapy at 24 weeks, P=0.01", "value": "significant decrease"},
      {"measurement": "mean percent increase of total adiponectin from baseline", "setting": "[3]; all subjects, 0-24 weeks oral EC-cysteamine, P=0.05", "value": "significantly increased"},
      {"measurement": "body weight reduction", "setting": "[4]", "value": 14, "unit": "%"},
      {"measurement": "mean terminal weight", "setting": "[4]", "value": 18.3, "unit": "g"}
    ]}
  ]
}
